According to PubChem BioAssay AID330 (DTP/NCI, 2004):
“And” between values parts separate entries of the source, which are not always exact repeats. Equal entries are not always repeated. Toxic doses and inconclusive results are not listed. The calls were made as follows: active = survival T/C of 150% or more; inactive = T/C below 125% in these data.

System: P388 leukemia ip, CD2F1 mice, survival T/C
Experiment: NCI In Vivo Anticancer Drug Screen. Data for tumor model P388 Leukemia (intraperitoneal) in CD2F1 (CDF1) mice
Conditions: endpoint: median survival time, higher = longer survival
Outline: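 Mice carrying the transplanted tumor received test compound or vehicle. Survival was recorded in each group, and the value is the treated-group measurement divided by that of the vehicle-treated control group.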

[1] = dose: 50.0 mg/kg/injection, schedule: Q01DX009 (ip), vehicle: saline
[2] = dose: 100.0 mg/kg/injection, schedule: Q01DX009 (ip), vehicle: saline
[3] = dose: 200.0 mg/kg/injection, schedule: Q01DX009 (ip), vehicle: saline
[4] = dose: 100.0 mg/kg/injection, schedule: Q04DX003 (ip), vehicle: saline with Tween-80
[5] = dose: 200.0 mg/kg/injection, schedule: Q04DX003 (ip), vehicle: saline with Tween-80
[6] = dose: 50.0 mg/kg/injection, schedule: Q01DX005 (ip), vehicle: Klucel (hydroxypropylcellulose) (HPC)
[7] = dose: 100.0 mg/kg/injection, schedule: Q01DX005 (ip), vehicle: Klucel (hydroxypropylcellulose) (HPC)
[8] = dose: 200.0 mg/kg/injection, schedule: Q01DX005 (ip), vehicle: Klucel (hydroxypropylcellulose) (HPC)
[9] = dose: 25.0 mg/kg/injection, schedule: Q01DX009 (ip), vehicle: Klucel (hydroxypropylcellulose) (HPC)
[10] = dose: 50.0 mg/kg/injection, schedule: Q01DX009 (ip), vehicle: Klucel (hydroxypropylcellulose) (HPC)
[11] = dose: 100.0 mg/kg/injection, schedule: Q01DX009 (ip), vehicle: Klucel (hydroxypropylcellulose) (HPC)
[12] = dose: 50.0 mg/kg/injection, schedule: Q01DX005 (ip), vehicle: saline
[13] = dose: 100.0 mg/kg/injection, schedule: Q01DX005 (ip), vehicle: saline

Measured: T/C

C/C(C/C(C)=N/O)=N/O
inactive: [1] 99 % of control | [2] 97 % of control | [3] 91 % of control

C=CCC(=C)C(=O)OC
inactive: dose: 12.5 mg/kg/injection, schedule: Q01DX009 (ip), vehicle: water 103 % of control | dose: 25.0 mg/kg/injection, schedule: Q01DX009 (ip), vehicle: water 104 % of control | dose: 50.0 mg/kg/injection, schedule: Q01DX009 (ip), vehicle: water 102 % of control | dose: 100.0 mg/kg/injection, schedule: Q01DX009 (ip), vehicle: water 102 % of control | dose: 200.0 mg/kg/injection, schedule: Q01DX009 (ip), vehicle: water 103 % of control

ClCc1cnc[nH]1
inactive: [1] 116 % of control | [2] 111 % of control

CC(C)=CC1C(C(=O)OCc2ccc3c(c2)OCO3)C1(C)C (stereo not given)
inactive: [1] 107 % of control | [2] 93 % of control | [3] 99 % of control | dose: 400.0 mg/kg/injection, schedule: Q01DX009 (ip), vehicle: saline 104 % of control

CCN(CC)C(=O)Cn1cc([N+](=O)[O-])sc1=NC(=O)c1ccco1
inactive: dose: 100.0 mg/kg/injection, schedule: Q01DX001 (ip), vehicle: Klucel (hydroxypropylcellulose) (HPC) 100 % of control | dose: 200.0 mg/kg/injection, schedule: Q01DX001 (ip), vehicle: Klucel (hydroxypropylcellulose) (HPC) 101 % of control

O=[N+]([O-])c1cnc(Sc2ccncn2)s1
inactive: dose: 1.56 mg/kg/injection, schedule: Q01DX009 (ip), vehicle: saline 103 % of control | dose: 3.12 mg/kg/injection, schedule: Q01DX009 (ip), vehicle: saline 108 % of control | dose: 6.25 mg/kg/injection, schedule: Q01DX009 (ip), vehicle: saline 100 % of control and 87 % of control | dose: 12.5 mg/kg/injection, schedule: Q01DX009 (ip), vehicle: saline 93 % of control

CC(CC/C=C/CO)C1CC(OS(=O)(=O)O)C2(O)C1(C)CCC1C3CCC(O)C(O)C3C(O)CC12O (stereo not given)
inactive: dose: 5.0 mg/kg/injection, schedule: Q01DX005 (ip), vehicle: Klucel (hydroxypropylcellulose) (HPC) 100 % of control | dose: 10.0 mg/kg/injection, schedule: Q01DX005 (ip), vehicle: Klucel (hydroxypropylcellulose) (HPC) 106 % of control | dose: 20.0 mg/kg/injection, schedule: Q01DX005 (ip), vehicle: Klucel (hydroxypropylcellulose) (HPC) 98 % of control | dose: 40.0 mg/kg/injection, schedule: Q01DX005 (ip), vehicle: Klucel (hydroxypropylcellulose) (HPC) 95 % of control

O=[N+]([O-])/C=C/c1cc2c(cc1Br)OCO2
inactive: [4] 113 % of control | [5] 113 % of control

COc1ccc2c(c1)c(COC(C)=O)c(COC(C)=O)c[n+]2[O-]
inactive: [6] 98 % of control | [7] 97 % of control | [8] 94 % of control

Cc1nc2c(cnn2CN2CCCCC2)c(=O)n1-c1ccccc1
inactive: [6] 100 % of control | [7] 101 % of control | [8] 107 % of control

CCOCNC=O
inactive: dose: 125.0 mg/kg/injection, schedule: Q01DX005 (ip), vehicle: water 107 % of control | dose: 250.0 mg/kg/injection, schedule: Q01DX005 (ip), vehicle: water 100 % of control | dose: 500.0 mg/kg/injection, schedule: Q01DX005 (ip), vehicle: water 107 % of control | dose: 1000.0 mg/kg/injection, schedule: Q01DX005 (ip), vehicle: water 112 % of control

CN1CCN(S(=O)(=O)c2cnccc2N2CCN(CCO)CC2)CC1
inactive: [1] 108 % of control | [2] 97 % of control | [3] 97 % of control

ClC1=CC(Cl)=C2N=C(N3CCCC3)N=C3N=C(N4CCCC4)N=C1N32
inactive: dose: 50.0 mg/kg/injection, schedule: Q01DX005 (ip), vehicle: Klucel + Tween-80 93 % of control | dose: 100.0 mg/kg/injection, schedule: Q01DX005 (ip), vehicle: Klucel + Tween-80 93 % of control | dose: 200.0 mg/kg/injection, schedule: Q01DX005 (ip), vehicle: Klucel + Tween-80 90 % of control

COc1cc2c(c(OC)c1OC)-c1ccc(S(C)(=O)=O)c(=O)cc1[C@@H](NC(C)=O)CC2
inactive: dose: 0.78 mg/kg/injection, schedule: Q01DX009 (ip), vehicle: Klucel (hydroxypropylcellulose) (HPC) 105 % of control and 106 % of control | dose: 1.56 mg/kg/injection, schedule: Q01DX009 (ip), vehicle: Klucel (hydroxypropylcellulose) (HPC) 105 % of control and 120 % of control | dose: 3.12 mg/kg/injection, schedule: Q01DX009 (ip), vehicle: Klucel (hydroxypropylcellulose) (HPC) 106 % of control and 111 % of control | dose: 6.25 mg/kg/injection, schedule: Q01DX009 (ip), vehicle: Klucel (hydroxypropylcellulose) (HPC) 115 % of control | dose: 12.5 mg/kg/injection, schedule: Q01DX009 (ip), vehicle: Klucel (hydroxypropylcellulose) (HPC) 105 % of control and 122 % of control | [9] 108 % of control

O=C(C(=O)c1ccccn1)c1ccccn1
inactive: dose: 50.0 mg/kg/injection, schedule: Q04DX003 (ip), vehicle: saline with Tween-80 100 % of control | [4] 105 % of control | [5] 109 % of control | dose: 400.0 mg/kg/injection, schedule: Q04DX003 (ip), vehicle: saline with Tween-80 100 % of control

O=C(c1ccc(O)cc1)c1ccc(C(=O)c2ccc(O)cc2)cc1
inactive: [10] 99 % of control | [11] 97 % of control | dose: 200.0 mg/kg/injection, schedule: Q01DX009 (ip), vehicle: Klucel (hydroxypropylcellulose) (HPC) 90 % of control

O=C1C=C(Cl)C(=O)C(c2ccccc2)=C1Cl
inactive: dose: 12.5 mg/kg/injection, schedule: Q01DX005 (ip), vehicle: Klucel (hydroxypropylcellulose) (HPC) 96 % of control | dose: 25.0 mg/kg/injection, schedule: Q01DX005 (ip), vehicle: Klucel (hydroxypropylcellulose) (HPC) 91 % of control

Cc1ccc(S(=O)CC2=NC(C)(C)CO2)cc1 (stereo not given)
inactive: [12] 104 % of control | [13] 98 % of control | dose: 200.0 mg/kg/injection, schedule: Q01DX005 (ip), vehicle: saline 103 % of control

O=C(Nc1cccc(C(F)(F)F)c1)Nc1nccs1
inactive: [9] 100 % of control | [10] 98 % of control | [11] 97 % of control

CCN(CC)CCCC(C)N=C(Nc1ccccc1)c1ccc(Cl)cc1 (stereo not given)
inactive: [12] 104 % of control | [13] 102 % of control

NCCCC(NN)C(=O)O (stereo not given)
inactive: dose: 3.3 mg/kg/injection, schedule: Q01DX009 (ip), vehicle: saline 101 % of control and 90 % of control | dose: 6.6 mg/kg/injection, schedule: Q01DX009 (ip), vehicle: saline 100 % of control and 95 % of control | dose: 7.5 mg/kg/injection, schedule: Q01DX009 (ip), vehicle: saline 100 % of control | dose: 10.0 mg/kg/injection, schedule: Q01DX009 (ip), vehicle: saline 99 % of control and 97 % of control | dose: 15.0 mg/kg/injection, schedule: Q01DX009 (ip), vehicle: saline 109 % of control and 93 % of control | dose: 22.5 mg/kg/injection, schedule: Q01DX009 (ip), vehicle: saline 102 % of control and 110 % of control | dose: 30.0 mg/kg/injection, schedule: Q01DX009 (ip), vehicle: saline 103 % of control

COc1cc(OC)c(/C=N/NC(=S)NC23CC4CC(CC(C4)C2)C3)c(OC)c1
inactive: dose: 15.0 mg/kg/injection, schedule: Q01DX005 (ip), vehicle: saline with Tween-80 94 % of control | dose: 30.0 mg/kg/injection, schedule: Q01DX005 (ip), vehicle: saline with Tween-80 97 % of control | dose: 240.0 mg/kg/injection, schedule: Q01DX005 (ip), vehicle: saline with Tween-80 89 % of control
